From patent publication US20210395239A1 (Hoffmann-La Roche Inc., priority 2018, published 2021)
pIC50: −log10 of the molar value.

Molecular target: T1, human TLR7 (Homo sapiens, UniProt Q9NYK1)
T1 construct: host or cells: HEK293 (HEK-Blue hTLR7)
T1 sequence (Q9NYK1 27-1049): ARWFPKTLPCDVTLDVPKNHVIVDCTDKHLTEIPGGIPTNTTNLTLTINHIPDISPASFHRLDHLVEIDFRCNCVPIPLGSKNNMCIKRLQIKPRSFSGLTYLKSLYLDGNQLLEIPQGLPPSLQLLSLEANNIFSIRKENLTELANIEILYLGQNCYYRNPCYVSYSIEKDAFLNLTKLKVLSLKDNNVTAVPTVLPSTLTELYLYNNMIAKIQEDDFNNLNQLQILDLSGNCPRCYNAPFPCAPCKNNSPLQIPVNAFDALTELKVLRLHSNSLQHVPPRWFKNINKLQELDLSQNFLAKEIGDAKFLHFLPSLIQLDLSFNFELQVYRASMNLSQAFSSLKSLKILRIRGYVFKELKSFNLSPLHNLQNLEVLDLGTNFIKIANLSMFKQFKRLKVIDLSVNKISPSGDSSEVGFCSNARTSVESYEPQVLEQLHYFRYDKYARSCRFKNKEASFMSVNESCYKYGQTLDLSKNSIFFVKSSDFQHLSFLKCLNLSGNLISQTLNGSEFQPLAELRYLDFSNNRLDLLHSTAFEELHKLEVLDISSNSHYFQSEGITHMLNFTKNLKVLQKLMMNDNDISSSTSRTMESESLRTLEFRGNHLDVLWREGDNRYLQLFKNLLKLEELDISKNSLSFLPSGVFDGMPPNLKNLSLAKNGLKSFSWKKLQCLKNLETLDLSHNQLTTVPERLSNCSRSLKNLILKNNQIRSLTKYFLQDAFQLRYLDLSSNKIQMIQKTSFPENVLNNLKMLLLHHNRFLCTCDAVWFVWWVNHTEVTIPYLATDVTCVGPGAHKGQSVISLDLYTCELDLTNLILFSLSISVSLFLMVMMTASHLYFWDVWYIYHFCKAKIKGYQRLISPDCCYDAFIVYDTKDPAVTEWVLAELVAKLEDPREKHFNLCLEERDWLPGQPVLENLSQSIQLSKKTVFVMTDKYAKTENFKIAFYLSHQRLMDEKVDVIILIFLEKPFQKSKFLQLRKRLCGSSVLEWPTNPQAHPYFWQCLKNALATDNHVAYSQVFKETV
Experiment: HEK293-Blue-hTLR-7 cells assay (SEAP reporter, R848 stimulation)
Format: cell-based
Conditions: HEK293-Blue-hTLR7 cells, R848, 20 hrs; read-out: HEK/hTLR7 IC50
Summary of the method: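 HEK293-Blue-hTLR7 cells (NF-κB/AP-1-driven SEAP reporter) were stimulated with R848 alongside serially diluted compound at 1% final DMSO for 20 h at 37 °C. Supernatant SEAP was then developed with QUANTI-Blue for 2 h at 37 °C and absorbance read at 620–655 nm; antagonism is measured as reduced reporter signal.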

| pIC50 | Compound |
| --- | --- |
| 7.59 | C[C@@H]1CN(c2cc(=O)n(C)c3ncccc23)C[C@H](CN2CC(c3ccc(N4C[C@H]5NCCO[C@@H]5C4)cc3)C2)O1 [Example 182, 4-[(2S,6R)-2-[[3-[4-[(4aR,7aR)-3,4,4a,5,7,7a-hexahydro-2H-pyrrolo[3,4-b][1,4]oxazin-6-yl]phenyl]azetidin-1-yl]methyl]-6-methyl-morpholin-4-yl]-1-methyl-1,8-naphthyridin-2-one] |
| 7.64 | C[C@@H]1CN(c2ccc(C#N)n3ncc(F)c23)C[C@H](CN2CCN(c3ccc([C@@H]4CNCCO4)c(F)c3)CC2)O1 [Example 184, 3-fluoro-4-[(2S,6R)-2-[[4-[3-fluoro-4-[(2R)-morpholin-2-yl]phenyl]piperazin-1-yl]methyl]-6-methyl-morpholin-4-yl]pyrazolo[1,5-a]pyridine-7-carbonitrile] |
| 7.41 | C[C@@H]1CN(c2ccc(C#N)n3ncc(F)c23)C[C@H](CN2CCN(c3ccc(C4(C)CNCCO4)cc3)CC2)O1 (stereo partly drawn) [Example 185, 3-fluoro-4-[(2R,6S)-2-methyl-6-[[4-[4-(2-methylmorpholin-2-yl)phenyl]piperazin-1-yl]methyl]morpholin-4-yl]pyrazolo[1,5-a]pyridine-7-carbonitrile] |
| 7.74 | C[C@@H]1CN(c2ccc(C#N)n3ncc(F)c23)C[C@H](CN2CCN(c3ccc(C[C@@H]4CNCCO4)cc3)CC2)O1 [Example 186, 3-fluoro-4-[(2R,6S)-2-methyl-6-[[4-[4-[[(2R)-morpholin-2-yl]methyl]phenyl]piperazin-1-yl]methyl]morpholin-4-yl]pyrazolo[1,5-a]pyridine-7-carbonitrile] |
